Measured values reported in patent publication US8008071B2 (University of South Florida, priority 1999, dated 2011).
“Also recorded” adds a separate entry of the source.

Legend:
PKCβII mRNA [1] = test: RT-PCR of PKCβII mRNA in primary human aortic smooth muscle cells (AoSMC); format: cell-based; conditions: 4 hours; for effect on PKCβII mRNA: 100 nM insulin
Protocol: (§1) Cells were grown to >90% confluency and medium was changed every 5 days.
(§2) Reverse Transcriptase-Polymerase Chain Reaction. […] The upstream sense primer corresponded to the C4 kinase domain common to both PKCβI and PKCβII (5′ […] 3′) [SEQ ID NO:4] and the downstream antisense primer was specific for PKCβI (5′ […] 3′) [SEQ ID NO:5] (Chalfant et al., 1995, pp.13326-13332). These primers detect inclusion of the PKCβII exon in the mature mRNA as well as PKCβI mRNA. Sense and antisense primers for β-actin (#5402-3) were obtained from Clonetech. PCR was performed using ampliTaq Gold DNA polymerase from PERKIN ELMER (#N808-0240) on 10% of the reverse transcriptase reaction product. Following 35 cycles of amplification in a BIOMETRA Trioblock thermocycler (PKCβI and -βII: 95° C., 30 sec; 64° C., 2 min for 35 cycles; and for β-actin: 94° C., 1 min; 58° C., 1 min; and 72° C., 3 min for 35 cycles), 25% of the PCR reaction was resolved on a 1.2% agarose gel. Bands were observed under UV light and photographed.

PKCβI mRNA [2] = test: RT-PCR of PKCβI mRNA in primary human aortic smooth muscle cells (AoSMC); format: cell-based; conditions: 100 nM insulin, 4 hours
Protocol: as §1, §2

PP1 = conditions: cited from earlier work
PP2B = conditions: cited from earlier work
PKCβII mRNA [3] = test: RT-PCR of PKCβII mRNA in synchronized A10 cells; format: cell-based, rat; conditions: for effect of inhibitor on glucose-induced destabilization of PKCβII mRNA: 30 minutes pre-incubation, then 25 mM glucose; for effect of inhibitor on glucose-induced destabilization of PKCβII mRNA / PERCENT OF PKCβII mRNA POST-GLUCOSE TREATMENT: synchronized A10 cells; for PERCENT OF PKCβII mRNA POST-GLUCOSE TREATMENT: inhibitor added 30 minutes prior to 25 mM glucose, 5.5 mM glucose control = 100%; for effect of glucose analogs on PKCβII mRNA: 25 mM analog
Protocol: as §2
Primers were designed for the upstream common kinase region (C4) (-sense primer) and the PKCβI exon (-antisense primer) for simultaneous amplification of both PKCβI and -βII messages by RT-PCR.

[4] = system: IL-3 3′-UTR ARE transcript; conditions: cited from earlier work
PP2A = conditions: cited from earlier work
rat VSMC = conditions: cited from earlier work
PKCβ promoter = test: PKCβ promoter-CAT deletion constructs transiently transfected into A10 cells; format: cell-based, rat; conditions: 100 nM TPA
Protocol: Calcium-phosphate transfections. For promoter studies, A10 cells were grown and synchronized in 6-well plates. Three hours prior to transfections, fresh medium (DMEM containing 10% fetal bovine serum) was substituted on A10 cells. pβG or pβG-PKCβII expression vectors were transfected with the calcium-phosphate-DNA precipitate. Following overnight incubation, calcium phosphate-DNA precipitate was washed off with 1× Dulbecco's phosphate buffered saline (DPBS) and replaced with fresh medium. For stably-transfected cell selection, 0.7 mg/ml G-418 was added to the media. It was changed every 4 days and 10-14 days later, the colonies were pooled and maintained in DMEM (10% FBS) with 0.2 mg/ml G-418.
Since PKCβ is a low copy gene, nuclear run-on assays were not a practical approach to examine transcriptional regulation. […] PKCβ promoter constructs with successive deletions of the 5′ region cloned in front of a promoterless chloramphenicol acetyltransferase (CAT) as the reporter gene were transiently transfected into A10 cells (FIG. 19). pSV-β-Galactosidase was co-transfected with the CAT constructs to normalize the efficiency of transfection. Simultaneous positive and negative controls were carried out as described previously.
Transcriptional repression of PKCβ promoter by transcription factors in response to high glucose was anticipated. […]

PKCβI mRNA [5] = test: RT-PCR of PKCβI mRNA in synchronized A10 cells; format: cell-based, rat; conditions: 4 hours
Protocol: as §2
Thus, the PKCβII transcript contains the PKCβI exon with the poly A tail and a common 3′ untranslated region (FIG. 25). Inclusion of the alternatively spliced exon encodes a stop codon such that the PKCβI exon facilitates poly-adenylation but the exon is not translated, thereby generating PKCβII protein. […] Although, this assay is semi-quantitative, the ration of PKCβII to PKCβI mRNA was about 2 to 1.

PKCβ(I+II) mRNA [6] = test: In vitro RNA stability assay with post-nuclear extracts of A10 cells; parameters: species or system rat; conditions: 50 mM EDTA added to the reaction mix
Protocol: RNA stability assay. To prepare post-nuclear extracts (see, for example, Wager, R. E. and R. K. Assoian. 1990. A phorbol ester-regulated ribonuclease system controlling transforming growth factor BI gene expression in hematopoietic cells. Mol. Cell. Biol. 10:5983-5990), synchronized A1O cells, re-initiated to proliferate with DMEM+10% FBS were treated with either 5.5 mM or 25 mM glucose for 2 h to 24 h, then washed and collected in ice-cold 1× DPBS. The cellular pellet was re-suspended in extract buffer containing 0.01M Tris-HCl, 0.15M NaCl, 0.5% Nonidet P-40, leupeptin (10 μg/ml) and aprotonin (10 μg/ml) incubated on ice for 10 minutes and carefully layered over extract buffer containing 24% sucrose. Samples were centrifuged over a sucrose gradient at 1 0,000xg for 20 minutes at 4° C. Post-nuclear extract was separated, stored on ice and aliquots taken for protein concentration using Bradford protein assay (see Bradford, M. M. 1976. A rapid and sensitive method for the quantitation of microgram quantities of protein utilizing the principle of protein-dye bindingno title. Anal. Biochem. 72:248-254). Total RNA (10 μg) from A10 cells, was incubated with 2.7% (vol/vol) of the post-nuclear extracts for 30 minutes at 4° C. in 50 μl (final volume) of extract buffer. When specifically noted, 50 mM EDTA was added to the reactions as a control to inhibit nuclease activity. […]

glucose-sensing element = test: Specificity of the glucose-sensing element for hexoses
PKCβ(I+II) mRNA [7] = test: Northern blot of steady state PKCβ(I+II) mRNA in synchronized A10 cells; format: cell-based, rat; conditions: 25 mM mannitol osmotic control, 15-18 hours
Protocol: Cell culture. […] Cells were grown to >90% confluency and media was changed every 4 days. Cell synchronization was achieved by serum deprivation (0.5% FBS) for 48 hours (see, for example, Ross, R., C. Nist, B. Kariya, M. J. Rivest, E. Raines, and J. Callis. 1978. Physiological quiescence in plasma-derived serum: Influence of platelet derived growth factor on cell growth in culture. J. Cell. Physiol. 97:497-508).
Isolation of RNA and Northern Blot Analysis. Total cellular RNA was isolated from 100-mm plates using Tri-Reagent (Molecular Research Center, Inc.). […] Ethidium bromide was added in the loading buffer for visualization and quantitation of 18S and 28S RNA. After fractionation, the integrity and loading of RNA was assessed under UV light (23,24). […] Membranes were washed with high stringency conditions (1×SSC, 0.1% SDS for 15 minutes at 42° C. followed by 0.11× SSC, 0.1% SDS for 15 minutes at 42° C.), and quantitated using Molecular Dynamics Phosphoimaging System. In experiments, where mentioned, membranes were exposed to X-ray film and the autoradiograms were quantitated densitometrically.
Cells incubated with 25 mM mannitol were used as osmotic controls. Total RNA was extracted and the mRNA transcript levels were detected using a full length PKCβ cDNA probe which would cross-hybridize with both PKCβI and PKCβII mRNAs. […]

insulin: hormone that promotes glucose uptake
effect on PKCβII mRNA (PKCβII mRNA [1]): did not significantly affect | effect on PKCβII mRNA (PKCβII mRNA [1]; listed as Insulin): did not destabilize | PKCβII mRNA diminished (PKCβII mRNA [1]; 25 mM glucose+100 nM insulin): 60% | effect on PKCβI mRNA (PKCβI mRNA [2]): did not significantly affect | effect on PKCβI mRNA (PKCβI mRNA [2]; listed as Insulin): did not destabilize

C=C1[C@@H](O)[C@@H]2O[C@]3(CC[C@H](/C=C/[C@@H](C)[C@@H]4CC(C)=C[C@@]5(O[C@H](C[C@@](C)(O)C(=O)O)CC[C@H]5O)O4)O3)CC[C@H]2O[C@@H]1[C@@H](O)C[C@H](C)[C@H]1O[C@@]2(CCCCO2)CC[C@H]1C [Okadaic acid]
Ki (PP1): 0.02 µM | Ki (PP2B): less potent inhibitor | effect of inhibitor on glucose-induced destabilization of PKCβII mRNA (PKCβII mRNA [3]): interfered; also recorded: inhibited the destabilization | effect on mRNA stability in GFP reporter system [4]: mRNA stabilizing compound | Ki (PP2A): 0.0002 µM

O=C1NC(=O)c2cc(Nc3ccc(F)cc3)c(Nc3ccc(F)cc3)cc21 [CGP53353]
glucose-stimulated rat VSMC proliferation (rat VSMC): inhibits

COc1cccc(-c2cc(=O)c3ccccc3o2)c1N [PD 98059]
PERCENT OF PKCβII mRNA POST-GLUCOSE TREATMENT (PKCβII mRNA [3]): 5%

CCCCCCCCCCCCCC(=O)O[C@@H]1[C@@H](C)[C@@]2(O)[C@@H](C=C(CO)C[C@]3(O)C(=O)C(C)=C[C@@H]23)[C@@H]2C(C)(C)[C@]12OC(C)=O [TPA, 12-O-tetradecanoylphorbol-13-acetate]
increase of promoter activity in all constructs (PKCβ promoter): ten-fold

CO[C@@H]([C@H](O)[C@H](O)CO)[C@@H](O)C=O [3-O-Methylglucose, 3-O-methylglucose]
effect of glucose analogs on PKCβII mRNA (PKCβII mRNA [3]; 4 hours): destabilized

O=c1cc(N2CCOCC2)oc2c(-c3ccccc3)cccc12 [LY 294002]
PERCENT OF PKCβII mRNA POST-GLUCOSE TREATMENT (PKCβII mRNA [3]): 90%

CO[C@H]1[C@@H](OC)C[C@H](C)[C@@H](OC)C2=CC(=O)C=C(NC(=O)/C(C)=C/C=C\[C@H](OC)[C@@H](OC(N)=O)/C(C)=C/[C@@H]1C)C2=O [Herbimycin A]
effect of inhibitor on glucose-induced destabilization of PKCβII mRNA (PKCβII mRNA [3]): prevented | PERCENT OF PKCβII mRNA POST-GLUCOSE TREATMENT (PKCβII mRNA [3]): 90%

CO[C@H]1C[C@@H]2CC[C@@H](C)[C@@](O)(O2)C(=O)C(=O)N2CCCC[C@H]2C(=O)O[C@H]([C@H](C)C[C@@H]2CC[C@@H](O)[C@H](OC)C2)CC(=O)[C@H](C)/C=C(\C)[C@@H](O)[C@@H](OC)C(=O)[C@H](C)C[C@H](C)/C=C/C=C/C=C/1C [Rapamycin]
PERCENT OF PKCβII mRNA POST-GLUCOSE TREATMENT (PKCβII mRNA [3]): 5%

N#C/C(=C/c1ccc(O)c(O)c1)C(=O)NCc1ccccc1 [AG-490]
PERCENT OF PKCβII mRNA POST-GLUCOSE TREATMENT (PKCβII mRNA [3]): 5%

N[C@H]1C(O)O[C@H](CO)[C@@H](O)[C@@H]1O (stereo partly shown) [Glucosamine]
effect on PKCβI mRNA (PKCβI mRNA [5]; 10 mM glucosamine in the presence of 5.5 mM glucose): did not destabilize; also recorded: did not affect | effect on PKCβII mRNA (PKCβII mRNA [3]; 10 mM glucosamine in the presence of 5.5 mM glucose, 4 hours): did not destabilize; also recorded: did not affect

C[C@@H]1C[C@@H]([C@H](O)CC2CC(=O)NC(=O)C2)C(=O)[C@@H](C)C1 [Cycloheximide]
effect of inhibitor on glucose-induced destabilization of PKCβII mRNA (PKCβII mRNA [3]): did not block | PERCENT OF PKCβII mRNA POST-GLUCOSE TREATMENT (PKCβII mRNA [3]): 10%

CO[C@@H]1[C@H](N(C)C(=O)c2ccccc2)C[C@H]2O[C@]1(C)n1c3ccccc3c3c4c(c5c6ccccc6n2c5c31)C(=O)NC4 [CG 41251]
PERCENT OF PKCβII mRNA POST-GLUCOSE TREATMENT (PKCβII mRNA [3]): 100%

O=CC[C@@H](O)[C@H](O)[C@H](O)CO [2-DOG, 2-deoxyglucose]
effect of glucose analogs on PKCβII mRNA (PKCβII mRNA [3]; 4 hours): destabilized

O=C(O)CN(CCN(CC(=O)O)CC(=O)O)CC(=O)O [EDTA]
degradation of RNA by post-nuclear extract (PKCβ(I+II) mRNA [6]): No degradation

O=C(CO)[C@@H](O)[C@H](O)[C@H](O)CO [fructose]
destabilization of the glucose-sensing element (glucose-sensing element): do not destabilize

OC[C@@H](O)[C@@H](O)[C@H](O)[C@H](O)CO [mannitol]
destabilization of the glucose-sensing element (glucose-sensing element): do not destabilize | levels of PKCβI mRNA (PKCβI mRNA [5]; 5.5 mM glucose+19.5 mM mannitol (osmotic control)): remained unchanged | levels of PKCβII mRNA (PKCβII mRNA [3]; 5.5 mM glucose+19.5 mM mannitol (osmotic control), 4 hours): did not; also recorded: remained unchanged | PKCβ(I+II) mRNA levels (PKCβ(I+II) mRNA [7]): remained unchanged
